Bounds are passed on as bounds.

In the experiment the target is T1, GPR40 of human origin (Homo sapiens, UniProt O14842).
T1 construct: expressed in transfected cells
T1 sequence (O14842 whole entry): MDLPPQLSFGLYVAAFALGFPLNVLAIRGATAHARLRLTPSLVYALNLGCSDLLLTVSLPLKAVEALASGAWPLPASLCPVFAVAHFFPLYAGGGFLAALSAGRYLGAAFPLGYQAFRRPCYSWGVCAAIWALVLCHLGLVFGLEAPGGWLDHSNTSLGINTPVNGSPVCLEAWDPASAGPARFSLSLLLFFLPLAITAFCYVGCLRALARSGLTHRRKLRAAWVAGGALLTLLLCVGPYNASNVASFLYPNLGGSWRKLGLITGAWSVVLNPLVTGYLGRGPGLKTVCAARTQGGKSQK
Nature of the experiment: Agonist action on GPR40 of human origin (Ca2+ fluorescence in CHO cells). In kind it is cell-based. Conditions: CHO cell strain stably expressing GPR40 of human origin; Ca2+ concentration fluctuation, fluorescent calcium indicator. On the procedure:
A CHO cell strain stably expressing GPR40 of human origin was used to determine the agonist action of a subject compound. This cell strain was seeded in a clear bottom 96 well plate at 4×10^4 cells/100 μL/well. The cell strain was cultured in a CO2 incubator overnight using a Ham's F-12 medium containing a 10% fetal bovine serum, 100 U/mL penicillin, 0.1 mg/mL streptomycin, and 400 μg/mL Geneticin. Calcium 4 Assay Kit (Molecular Devices) was used as a fluorescent calcium indicator. One mL of 77 mg/mL probenecid (Invitrogen) was added to 100 mL of a calcium indicator solution to prepare a solution (loading solution) mixed with a 20 mM HEPES-containing Hanks' balanced salt solution (HBSS) in equal proportions. 200 μL of the loading solution was added to the cells from which the culture solution was removed, and the cells were cultured in a CO2 incubator for 1 hour. The subject compound was diluted with a 20 mM HEPES-containing HBSS and was added to the cells by 50 μL, and the fluctuation of the Ca^2+ concentration was measured by an intracellular ion analyzer. The EC50 value of the subject compound was calculated using the dose-response curve of fluorescence intensity variation.
Usually EC50 stands for the concentration giving half of the maximal effect. As for `[O-][s+]1nc(O)cc1-c1ccc(OCc2cccc(Cl)c2Cl)cc1` (centres unmarked) [Example 86, 5-[4-[(2,3-dichlorophenyl)methoxy]phenyl]isothiazol-3-ol 1-oxide(A)], the EC50 was < 300 nM.
The result for `Cc1cccc(C)c1-c1cccc(COc2ccc(C3=CC(O)=NS3(=O)=O)cc2)c1` [Example 9, 5-(4-((3-(2,6-dimethylphenyl)phenyl)methoxy)phenyl)isothiazol-3-ol 1,1-dioxide] reads 300 to 3000 nM.
For `[O-][s+]1nc(O)cc1-c1ccc(O[C@@H]2CCc3c(-c4cccnc4)cccc32)cc1` (single isomer, unassigned) [Example 111], the EC50 is < 300 nM.
The result for `CCOCCOc1cc(C)c(-c2cccc(COc3ccc(-c4cc(O)n[s+]4[O-])cc3)c2)c(C)c1` (centres unmarked) [Example 17, 5-(4-((3-(2,6-dimethyl-4-(2-ethoxyethoxy)phenyl)phenyl)methoxy)phenyl)isothiazol-3-ol 1-oxide(A)] reads < 300 nM.
For the molecule `Cc1cc(OCCCS(C)(=O)=O)cc(C)c1-c1cccc(COc2ccc(-c3cc(O)n[s+]3[O-])cc2)c1C` (centres unmarked) [Example 23, 5-(4-((3-(2,6-dimethyl-4-(3-(methylsulfonyl)propoxy)phenyl)-2-methylphenyl)methoxy)phenyl)isothiazol-3-ol 1-oxide(A)], the EC50 is < 300 nM.
Regarding `Cc1cc(OCCCO)cc(C)c1-c1cccc(COc2ccc(-c3cc(O)n[s+]3[O-])cc2)c1` (centres unmarked) [Example 47, 5-(4-((3-(2,6-dimethyl-4-(3-hydroxypropoxy)phenyl)phenyl)methoxy)phenyl)isothiazol-3-ol 1-oxide(A)], the EC50 was < 300 nM.
The result for `Cc1cc(OCC2(C)COC2)cc(C)c1-c1cccc(COc2ccc(-c3cc(O)n[s+]3[O-])cc2)c1C` (centres unmarked) [Example 42, 5-(4-((3-(2,6-dimethyl-4-((3-methyl-3-oxetanyl)methoxy)phenyl)-2-methylphenyl)methoxy)phenyl)isothiazol-3-ol 1-oxide(A)] reads < 300 nM; that for `[O-][s+]1nc(O)cc1-c1ccc(OC2CCc3cc(Cl)ccc32)cc1` (centres unmarked) [Example 6, 5-(4-(5-chloro-2,3-dihydro-1H-inden-1-yloxy)phenyl)isothiazol-3-ol 1-oxide], 300 to 3000 nM.
The result for `Cc1cc(OCCCS(C)(=O)=O)cc(C)c1-c1cccc(COc2ccc(-c3cc(O)n[s+]3[O-])cc2)c1` (centres unmarked) [Example 44, 5-(4-((3-(2,6-dimethyl-4-(3-(methylsulfonyl)propoxy)phenyl)phenyl)methoxy)phenyl)isothiazol-3-ol 1-oxide(A)] reads < 300 nM; that for `[O-][s+]1nc(O)cc1-c1ccc(O[C@@H]2CCc3c(C4=CCOCC4)cccc32)cc1` (stereo partly drawn) [Example 121, 5-[4-[[(1R)-4-(3,6-dihydro-2H-pyran-4-yl)-2,3-dihydro-1H-inden-1-yl]oxy]phenyl]isothiazol-3-ol 1-oxide(A)], 300 to 3000 nM; that for `Cc1cc(OCCC(C)(C)O)nc(C)c1-c1cccc(COc2ccc(-c3cc(O)n[s+]3[O-])cc2)c1C` (centres unmarked) [Example 12, 5-(4-((3-(2,4-dimethyl-6-(3-hydroxy-3-methylbutoxy)pyridin-3-yl)-2-methylphenyl)methoxy)phenyl)isothiazol-3-ol 1-oxide], < 300 nM.
The result for `Cc1nc(OCCO)ccc1-c1cccc(COc2ccc(-c3cc(O)n[s+]3[O-])cc2)c1C` (centres unmarked) [Example 52, 5-(4-((3-(2-methyl-6-(2-hydroxyethoxy)pyridin-3-yl)-2-methylphenyl)methoxy)phenyl)isothiazol-3-ol 1-oxide(A)] reads 300 to 3000 nM; that for `[O-][s+]1nc(O)cc1-c1ccc(OC2CCc3c(Oc4ccccc4)cccc32)cc1` (centres unmarked) [Example 124, 5-[4-[(4-phenoxy-2,3-dihydro-1H-inden-1-yl)oxy]phenyl]isothiazol-3-ol 1-oxide(A)], < 300 nM; that for `Cc1cc(OCCC(C)(C)O)ncc1-c1cccc(COc2ccc(-c3cc(O)n[s+]3[O-])cc2)c1C` (centres unmarked) [Example 10, 5-(4-((3-(6-(3-hydroxy-3-methylbutoxy)-4-methylpyridin-3-yl)-2-methylphenyl)methoxy)phenyl)isothiazol-3-ol 1-oxide], < 300 nM.

For the origin of these results see US8476287B2, “3-hydroxy-5-arylisothiazole derivative” (Mochida Pharmaceutical Co., Ltd., priority 2009, dated 2013).
